Laboratory results taken from PMC6691788, “Design and synthesis of phthalazine-based compounds as potent anticancer agents with potential antiangiogenic activity via VEGFR-2 inhibition” (Journal of Enzyme Inhibition and Medicinal Chemistry, 2019).

Experiments:
HS 578T = test: NCI 60 cell panel SRB screen; type: cell-based; conditions: Homo sapiens; for activity at 10 µM: read-out: percent cell growth promotion
CAKI-1 = test: NCI 60 cell panel SRB screen; type: cell-based, human; conditions: for activity at 10 µM: CAKI-1, single dose 10 μM, read-out: percent cell growth promotion
MDA-MB 231/ATCC = test: NCI 60 cell panel SRB screen; type: cell-based; conditions: Homo sapiens; for activity at 10 µM: MDA-MB-231, read-out: percent cell growth promotion
MALME-3M = test: NCI 60 cell panel SRB screen; type: cell-based; conditions: Homo sapiens; for activity at 10 µM: read-out: percent cell growth promotion
OVCAR-4 = test: NCI 60 cell panel SRB screen; type: cell-based; conditions: Homo sapiens; for activity at 10 µM: OVCAR-4, single dose 10 μM, read-out: percent cell growth promotion
NCI-H522 = test: NCI 60 cell panel SRB screen; type: cell-based; conditions: Homo sapiens; for activity at 10 µM: NCI-H522, single dose 10 μM, read-out: percent cell growth promotion
HOP-92 = test: NCI 60 cell panel SRB screen; type: cell-based; conditions: Homo sapiens; for activity at 10 µM: HOP-92, single dose 10 μM, read-out: percent cell growth promotion
full NCI 60 cell panel = test: NCI 60 cell panel SRB screen, whole panel; type: cell-based, human; conditions: for activity at 10 µM: mean over the panel, single dose 10 μM, read-out: Mean percent cell growth promotion
Excerpt: Aiming to evaluate the general antitumour activity of the synthesised phthalazines, the structures of the final compounds were submitted to National Cancer Institute “NCI” (www.dtp.nci.nih.gov), Bethesda, Maryland, USA. In vitro NCI anticancer screening involves two-stage process, the first stage started with the evaluation of the selected candidates against the full NCI 60 cell lines panel representing leukaemia, non-small cell lung cancer, melanoma, colon, CNS, breast, ovarian, renal and prostate cancers at a single dose of 10 µM. NCI selection is based on degree of structure variation and application of computer modelling techniques to prioritise compounds based on their ability to add diversity to the NCI small molecule compound collection.
Eight compounds (6b, 6e, 7b, 13a, 13c, 16a, 16d and 17a) were selected by NCI for further 5 log dose screening against full NCI 60 cell panel. All the 60 cell lines, representing nine tumour subpanels (leukaemia, non-small cell lung cancer, colon cancer, CNS cancer, prostate cancer, melanoma, ovarian cancer, renal cancer and breast cancer) which were incubated at five different concentrations (0.01, 0.1, 1, 10 and 100 µM) of each of the test compounds. The outcomes were used to create log concentration vs % growth inhibition curves, then three response parameters (GI50, TGI and LC50) were calculated for each cell line, (Tables S4 and S5 in Supplementary material).
The human tumor cell lines of the cancer-screening panel were grown in RPMI 1640 medium containing 5% fetal bovine serum and […] L-glutamine. For a typical screening experiment, cells are inoculated into 96 well microtiter plates in 100 ml at plating densities ranging from 5000 to 40,000 cells/well depending on the doubling time of individual cell lines. After cell inoculation, the microtiter plates are incubated at 37 °C, 5% CO2, 95% air and 100%
relative humidity for 24 h prior to addition of experimental drugs. After 24 h, two plates of each cell line are fixed in situ with TCA, to represent a measurement of the cell population for each cell line at the time of drug addition (Tz). Experimental drugs are dissolved in dimethyl sulfoxide at 400-fold the desired final maximum test concentration and stored frozen prior to use. At the time of drug addition, an aliquot of frozen concentrate is thawed and diluted to twice the desired final maximum test concentration with complete medium containing […] Gentamicin. Additional four, 10-fold or ½log serial dilutions are made to provide a total of five drug concentrations plus control. Aliquots of […] of these different drug dilutions are added to the appropriate microtiter wells already containing 100 ml of medium, resulting in the required final drug concentrations. Following drug addition, the plates are incubated for an additional 48 h at 37 °C, 5% CO2, 95% air, and 100% relative humidity. For adherent cells, the assay is terminated by the addition of cold TCA. Cells are fixed in situ by the gentle addition of […] of cold 50% (w/v) TCA (final concentration,10% TCA) and incubated for 60 min at 4 °C. The supernatant is discarded, and the plates are washed five times with tap water and air dried. Sulforhodamine B (SRB) solution (100 ml) at 0.4% (w/v) in 1% acetic acid is added to each well, and plates are incubated for 10 min at room temperature. After staining, unbound dye is removed by washing five times with 1% acetic acid and the plates are air dried. Bound stain is subsequently dissolved with 10 μM trizma base, and the absorbance is read on an automated plate reader at a wavelength of 515 nm. For suspension cells, the methodology is the same except that the assay is terminated by fixing settled cells at the bottom of the wells by gently adding […] of 80% TCA (final concentration, 16% TCA). […]

SW-620 = test: NCI 60 cell panel SRB screen; type: cell-based; conditions: Homo sapiens; for activity at 10 µM: SW-620, single dose 10 μM, read-out: percent cell growth promotion
SN12C = test: NCI 60 cell panel SRB screen; type: cell-based; conditions: Homo sapiens; for activity at 10 µM: single dose 10 μM, read-out: percent cell growth promotion
DU-145 = test: NCI 60 cell panel SRB screen; type: cell-based; conditions: Homo sapiens; for activity at 10 µM: DU-145, single dose 10 μM, read-out: percent cell growth promotion
MDA-MB-435 = test: NCI 60 cell panel SRB screen; type: cell-based; conditions: Homo sapiens; for activity at 10 µM: MDA-MB-435, read-out: percent cell growth promotion

Compound: O=C(Nc1ccc(Cl)cc1)Nc1ccc(Oc2nncc3ccccc23)cc1 [Compound 7b, 1–(4-Chlorophenyl)-3–(4-(phthalazin-1-yloxy)phenyl)urea]
- GI50 (HS 578T; Hs-578T): 690 nM
- IC (TGI) (HS 578T; Hs-578T, read-out: TGI): 47000 nM
- activity at 10 µM (HS 578T; Hs-578T): 37.5%
- CC50 (HS 578T; HS 578T, 5 log dose, 48 h, read-out: LC50 (the source's name)): > 100000 nM
- TGI (CAKI-1; CAKI-1, 5 log dose): 8700 nM
- GI50 (CAKI-1; Homo sapiens, CAKI-1, 5 log dose): 2720 nM
- CC50 (CAKI-1; Homo sapiens, CAKI-1, 5 log dose, 48 h, read-out: LC50 (the source's name)): 43900 nM
- activity at 10 µM (CAKI-1; Homo sapiens): 18.7%
- GI50 (MDA-MB 231/ATCC; MDA-MB-231): 390 nM
- IC (TGI) (MDA-MB 231/ATCC; MDA-MB-231, read-out: TGI): 3680 nM
- activity at 10 µM (MDA-MB 231/ATCC): -25.2%
- CC50 (MDA-MB 231/ATCC; MDA-MB-231, MDA-MDA 231/ATCC, 5 log dose, 48 h, read-out: LC50 (the source's name)): 42400 nM
- GI50 (MALME-3M; Malme-3M): 440 nM
- IC (TGI) (MALME-3M; Malme-3M, read-out: TGI): 2310 nM
- activity at 10 µM (MALME-3M; Malme-3M): 0.78%
- CC50 (MALME-3M; MALME-3M, 5 log dose, 48 h, read-out: LC50 (the source's name)): 9690 nM
- GI50 (OVCAR-4; OVCAR-4, 5 log dose): 750 nM
- IC (TGI) (OVCAR-4; OVCAR-4, 5 log dose): 3490 nM
- CC50 (OVCAR-4; OVCAR-4, 5 log dose, 48 h, read-out: LC50 (the source's name)): 17000 nM
- activity at 10 µM (OVCAR-4): -20.8%
- GI50 (NCI-H522; NCI-H522, 5 log dose): 190 nM
- IC (TGI) (NCI-H522; NCI-H522, 5 log dose): 410 nM
- CC50 (NCI-H522; NCI-H522, 5 log dose, 48 h, read-out: LC50 (the source's name)): 910 nM
- activity at 10 µM (NCI-H522): -46.4%
- GI50 (HOP-92; HOP-92, 5 log dose): 1640 nM
- IC (TGI) (HOP-92; HOP-92, 5 log dose): 4370 nM
- CC50 (HOP-92; HOP-92, 5 log dose, 48 h, read-out: LC50 (the source's name)): 17100 nM
- activity at 10 µM (HOP-92): 12.9%
- activity at 10 µM (full NCI 60 cell panel; Homo sapiens, 60 cell): -6.99%
- inhibition at 10 µM (full NCI 60 cell panel; Homo sapiens, 60 cell, single dose 10 µM, full panel, read-out: mean growth inhibition): 107%
- GI50 (SW-620; SW-620, 5 log dose): 340 nM
- IC (TGI) (SW-620; SW-620, 5 log dose): 1060 nM
- CC50 (SW-620; SW-620, 5 log dose, 48 h, read-out: LC50 (the source's name)): 30300 nM
- activity at 10 µM (SW-620): -30.1%
- GI50 (SN12C; 5 log dose): 1030 nM
- IC (TGI) (SN12C; 5 log dose): 3580 nM
- CC50 (SN12C; 5 log dose, 48 h, read-out: LC50 (the source's name)): > 100000 nM
- activity at 10 µM (SN12C): -3.83%
- GI50 (DU-145; DU-145, 5 log dose): 730 nM
- IC (TGI) (DU-145; DU-145, 5 log dose): 2080 nM
- CC50 (DU-145; DU-145, 5 log dose, 48 h, read-out: LC50 (the source's name)): 4880 nM
- activity at 10 µM (DU-145): 11.2%
- GI50 (MDA-MB-435; MDA-MB-435): 290 nM
- IC (TGI) (MDA-MB-435; MDA-MB-435, read-out: TGI): 1070 nM
- activity at 10 µM (MDA-MB-435): -33.3%
- CC50 (MDA-MB-435; MDA-MB-435, 5 log dose, 48 h, read-out: LC50 (the source's name)): 5650 nM

Compound: Cc1nnc(Oc2ccc(NC(=O)Nc3ccc(Cl)cc3)cc2)c2ccccc12 [Compound 7e, 1–(4-Chlorophenyl)-3–(4-(4-methylphthalazin-1-yloxy)phenyl)urea]
- activity at 10 µM (HS 578T; Hs-578T): 76.4%
- activity at 10 µM (CAKI-1; Homo sapiens): 79.7%
- activity at 10 µM (MDA-MB 231/ATCC): 52.9%
- activity at 10 µM (MALME-3M; Malme-3M): 92.6%
- activity at 10 µM (OVCAR-4): 70.8%
- activity at 10 µM (NCI-H522): 63.8%
- activity at 10 µM (HOP-92): 93.5%
- activity at 10 µM (full NCI 60 cell panel; Homo sapiens, 60 cell): 72.8%
- cell growth inhibition, in words (full NCI 60 cell panel; single dose 10 µM): moderate cell growth inhibition against leukaemia and breast cell lines
- activity at 10 µM (SW-620): 95%
- activity at 10 µM (SN12C): 79.1%
- activity at 10 µM (DU-145): 81.4%
- activity at 10 µM (MDA-MB-435): 79.2%

Compound: CCOC(=O)N1CCN(c2nncc3ccccc23)CC1 [Compound 8a, Ethyl 4-(phthalazin-1-yl)piperazine-1-carboxylate]
- activity at 10 µM (HS 578T; Hs-578T): 113%
- activity at 10 µM (CAKI-1; Homo sapiens): 96.1%
- activity at 10 µM (MDA-MB 231/ATCC): 108%
- activity at 10 µM (MALME-3M; Malme-3M): 109%
- activity at 10 µM (OVCAR-4): 107%
- activity at 10 µM (NCI-H522): 99.8%
- activity at 10 µM (HOP-92): 104%
- activity at 10 µM (full NCI 60 cell panel; Homo sapiens, 60 cell): 105%
- cell growth inhibition, in words (full NCI 60 cell panel; single dose 10 µM): nor the piperazines (8a, 8d, 8f, 8g, 8h and 8i) showed any significant cell line growth inhibition
- activity at 10 µM (SW-620): 102%
- activity at 10 µM (SN12C): 110%
- activity at 10 µM (DU-145): 104%
- activity at 10 µM (MDA-MB-435): 105%
